PMC11945201, “Enhancing the Oral Bioavailability of Glutathione Using Innovative Analogue Approaches” (Pharmaceutics, 2025)

Tests used:
[1] = system: Caco-2, Fibroblast, and HT29-MTX-E12 cells; test: Cytotoxicity by MTT cell viability; format: cell-based; conditions: 24 h incubation, cell line not split in table (Caco-2, Fibroblast, HT29-MTX-E12), highest usable concentration 3.25 mmolL^−1
Experimental: All cell culture studies were conducted in aseptic conditions. Incubation was maintained at an atmosphere of 37.0 °C, 5% CO2, and 95% relative humidity. The caco-2 cells were grown in complete Dulbecco’s modified Eagle’s medium (DMEM), which was prepared by adding 10% foetal bovine serum (FBS), 1% penicillin-streptomycin (P-S), and 1% non-essential amino acids (NEAA) to sterile DMEM. Cells were cultured in T-25 and T-75 tissue culture flasks, and the medium was exchanged every 3 days until 90% confluence was reached. Cells were detached and subcultured with 0.25% Trypsin-EDTA. The suspended cell concentration was determined by cell counting.
Cytotoxicity was measured by measuring cell viability using MTT. Then, 90% confluent cells were detached by 0.25% trypsin-EDTA, which were then counted and seeded into sterile 96-well plates. Caco-2 cells were seeded into 96-well plates at a density of 100,000 cells per well and incubated for 24 h prior to the experiment. Fibroblast cells were seeded into 96-well plates at a density of 10,000 cells per well and incubated for 24 h prior to the experiment. HT-29 cells were seeded into 96-well plates at a density of 10,000 cells per well and incubated for 24 h prior to the experiment. The supernatant in each well were discarded and the attached cells were washed using serum-free Fluorobite^TM DMEM twice to remove any phenol red. The peptide, at concentrations of 10 mgmL^−1, 1 mgmL^−1, 0.1 mgmL^−1, 0.01 mgmL^−1, 0.001 mgmL^−1, and 0.0001 mgmL^−1 were dissolved in serum-free Fluorobite^TM DMEM. The total volume of sample in each well used was 100 μL. The cells were incubated with the peptide for 24 h. Cells were also incubated with serum-free DMEM (positive control) and 2% Triton-X (negative control) for 24 h. The supernatant in each well was then discarded and washed using serum-free Fluorobite^TM DMEM. MTT (100 μL, 1.2 mmolL^−1) dissolved in Fluorobite^TM DMEM was then added to each well and incubated for 2 h for MTT conversion into formazan. The supernatant was then discarded, and the cells were washed using Fluorobite^TM DMEM to remove any residual MTT and formazan that were not attached to cellular mitochondria. Formazan was dissolved in dimethyl sulfoxide (DMSO) (50 μL), and the absorbance was measured on a microplate reader at a wavelength of 570 nm. Cell viability was expressed as a percentage of the positive control and calculated as follows (where Aexp is the absorbance at 570 nm of the experimental group, Aneg is the absorbance at 570 nm of the negative control, and Acon is the cell viability of the positive control): Cell viability = (Aexp − Aneg)/(Acon − Aneg).

[2] = system: glutathione S-transferase (GST); test: Glutathione S-transferase assay (CDNB conjugation, absorbance 340 nm); format: biochemical, equine; conditions: for activity/efficacy with GST enzyme (in words): qualitative analysis; for GST Activity > 50%: yes/no, compared to GSH, more than 50% considered retaining GST activity
Experimental: The degree of conjugation of GSH or novel compounds to a substrate catalysed by GST can be monitored […] by conjugation with the substrate 1-chloro-2,4-dinotrobenzene (CDNB) to a thiol group. Successful conjugation results in the formation of a S-DNB conjugate, which strongly absorbs at 340 nm.
A stock solution of GSH and novel compounds (0.0315 mmolL^−1) were prepared. GSH or novel compounds (26 µL) were added to a mixture of pH = 7.4 DPBS (170 µL), CDNB (2 µL, 100 mmolL^−1), and GST enzyme (2 µL, 25 UmL^−1) to initiate the reaction. The rate of increase in absorbance at 340 nm was monitored every minute over a 10 min period. The rate of increase in absorbance at 340 nm was calculated by the following equation (Equation (1)), where ΔA340 is the change in absorption at 340 nm per minute:(1) ΔA340=A340(final)–A340(initial)/t.
The rate of increase in absorption at 340 nm was correlated to the specific activity of GST using the following equation (Equation (2)):(2) ΔA340×V/εmM ×Venz=Specific activity of GST, where the extinction coefficient εmM for a 96-well plate of a path length of 0.5 cm is 5.3 mmolL^−1cm^−1; Venz is the volume of the GST enzyme sample used (2 µL); and V is the total volume used ([…]). […] A GST activity more than 50% was considered as retaining GST activity.

[3] = system: γ-glutamyl transferase (GGT); format: in vitro ADME, equine; conditions: for % Degradation by GGT: horse, 100 μgmL^−1, pH 9
Experimental: Each compound and GSH (100 μgmL^−1, 0.0315 molL^−1) was added to each reaction vessel containing phosphate buffer solution (800 μL, pH 9.0). The reaction vessels were incubated at 37 °C with shaking for the entire duration of the experiment. Reaction was initiated by the addition of GGT enzyme solution (100 μL, 10 UmL^−1). […] The degradation rate of the novel compounds analysed by HPLC were compared with that of GSH. […] A GGT degradation less than 50% was considered resistance to GTT activity.

[4] = system: Fibroblast cells; test: UV rescue of UVA-irradiated fibroblast cells (MTT); format: cell-based; conditions: for cell viability versus untreated groups (in words): UV rescue; for % Cell Viability (with UV): UVA 1 h, then peptide 0.0325 mmolL^−1, 24 h
Experimental: (§1) Fibroblast cells were seeded into 96-well plates at a density of 10,000 cells per well determined by cell counting. Cells were allowed to settle and attach for 24 h before the addition of peptides. The supernatant in each well was discarded, and the attached cells were washed using serum-free DMEM twice. One group of cells was exposed to UVA under a UV lamp for 1 h. A second group of cells was not exposed to UV irradiation. The supernatant was removed from each well of both groups and replaced with peptide (100 μL, 0.0325 mmolL^−1), which was then dissolved in Fluorobite^TM DMEM. Each plate, including 2 wells of both groups was also incubated with serum-free DMEM (positive control) and 2% Triton-X (negative control) for 24 h. The supernatant in each well of both groups was then discarded and the cells washed using PBS. MTT (100 μL, 6 mmolL^−1) that was dissolved in HBSS was then added to each well and incubated for 2 h for MTT conversion into formazan. The supernatant was then discarded, and the cells were washed using PBS to remove any residual MTT and formazan that were not attached to the cellular mitochondria. Formazan was dissolved in DMSO (50 μL), and the absorbance was measured on a microplate reader at a wavelength of 570 nm.

[5] = UV rescue of UVA-irradiated fibroblast cells (MTT); format: cell-based; conditions: peptide 0.0325 mmolL^−1, 24 h, no UV, mean ± SD, n = 6, read-out: % Cell Viability (no UV)
Experimental: as §1

[6] = system: glutathione reductase (GR) and glutathione peroxidase (GPx); test: Glutathione reductase and glutathione peroxidase coupled assay (NADPH, 340 nm); format: biochemical, yeast (GR), bovine (GPx); conditions: for activity with GPx and GR enzymes (in words): qualitative analysis; for GT/GPx Activity > 50%: yes/no, more than 50% considered retaining GR and GPx activity
Experimental: The activity of GR can be measured by monitoring the rate of decrease in absorbance of its substrate, NADPH, which absorbs light of 340 nm in the presence of a second substrate, i.e., oxidised GSH. […] In the presence of peroxides, reduced GSH can be oxidised by the enzyme GPx while reducing the peroxide. […] The NADPH solution (10 μL, 5 mmolL^−1), GPx enzyme solution (10 μL, 0.25 UmL^−1), and GR enzyme solution (10 μL, 10 UmL^−1) were also added to the reaction mixture. The reaction was initiated by the addition of tBu-OOH (2 μL, 30 mmolL^−1), and the decrease in absorbance at 340 nm was recorded by a microplate reader every 10 secs for one minute. […] A GR and GPx activity more than 50% was considered as retaining GR and GPx activity.

SMILES: CN(CC(=O)O)C(=O)[C@H](CS)NC(=O)CC[C@H](N)C(=O)O [Compound 1.65]
- IC50 ([1]; Homo sapiens): 0.984 mM
- activity/efficacy with GST enzyme (in words) [2]: loss of activity
- GST Activity > 50% [2]: X (X: no)
- GGT degradation compared to GSH (in words) [3]: did not show a decrease in degradation
- % Degradation by GGT [3]: 122.2%
- cell viability versus untreated groups (in words) [4]: significantly higher cell viability than the untreated groups
- % Cell Viability (with UV) ([4]; mean ± SD, n = 6): 69.3 ± 26.6%
- viability at 24 h, 0.0325 mmolL^−1 [5]: 58.8%
- activity with GPx and GR enzymes (in words) [6]: retention of activity
- GT/GPx Activity > 50% [6]: ✔ (✔: yes)

SMILES: N[C@@H](CCC(=O)N[C@@H](CS)C(=O)NCC(=O)O)C(=O)O [Compound 1.61]
- IC50 [1]: > 3.25 mM
- GST Activity > 50% [2]: ✔ (✔: yes)
- % Degradation by GGT [3]: 100%
- cell viability versus untreated groups (in words) [4]: significantly higher cell viability than the untreated groups
- % Cell Viability (with UV) ([4]; mean ± SD, n = 6): 69.0 ± 0.6%
- % Cell Viability (no UV) ([4]; peptide 0.0325 mmolL^−1, 24 h, no UV, mean ± SD, n = 6): 74.3 ± 2.0%
- GT/GPx Activity > 50% [6]: ✔ (✔: yes)

SMILES: N[C@H](CCC(=O)N[C@@H](CS)C(=O)NCC(=O)O)C(=O)O [Compound 1.63]
- IC50 ([1]; Homo sapiens): > 3.25 mM
- activity/efficacy with GST enzyme (in words) [2]: lost detoxification efficacy
- GST Activity > 50% [2]: X (X: no)
- GGT degradation compared to GSH (in words) [3]: less than half the rate of GGT degradation
- % Degradation by GGT [3]: 72.7%
- cell viability versus untreated groups (in words) [4]: significantly higher cell viability than the untreated groups
- % Cell Viability (with UV) ([4]; mean ± SD, n = 6): 101.1 ± 5.2%
- viability at 24 h, 0.0325 mmolL^−1 [5]: 137 ± 16.1%
- activity with GPx and GR enzymes (in words) [6]: retained activity
- GT/GPx Activity > 50% [6]: ✔ (✔: yes)

SMILES: N[C@H](CCC(=O)N[C@H](CS)C(=O)NCC(=O)O)C(=O)O [Compound 1.64]
- IC50 ([1]; Homo sapiens): > 3.25 mM
- activity/efficacy with GST enzyme (in words) [2]: retained the detoxification effectiveness
- GST Activity > 50% [2]: ✔ (✔: yes)
- GGT degradation compared to GSH (in words) [3]: less than half the rate of GGT degradation
- % Degradation by GGT [3]: 60.2%
- cell viability versus untreated groups (in words) [4]: significantly higher cell viability than the untreated groups
- % Cell Viability (with UV) ([4]; mean ± SD, n = 6): 98.5 ± 7.1%
- viability at 24 h, 0.0325 mmolL^−1 [5]: 128 ± 7.9%
- activity with GPx and GR enzymes (in words) [6]: loss of activity
- GT/GPx Activity > 50% [6]: X (X: no)

SMILES: N[C@@H](CCC(=O)N[C@H](CS)C(=O)NCC(=O)O)C(=O)O [Compound 1.62]
- IC50 ([1]; Homo sapiens): > 3.25 mM
- activity/efficacy with GST enzyme (in words) [2]: lost detoxification efficacy
- GST Activity > 50% [2]: X (X: no)
- GGT degradation compared to GSH (in words) [3]: less than half the rate of GGT degradation
- % Degradation by GGT [3]: 82.3%
- cell viability versus untreated groups (in words) [4]: significantly higher cell viability than the untreated groups
- % Cell Viability (with UV) ([4]; mean ± SD, n = 6): 70.8 ± 5.7%
- viability at 24 h, 0.0325 mmolL^−1 [5]: 112 ± 5.5%
- activity with GPx and GR enzymes (in words) [6]: loss of activity
- GT/GPx Activity > 50% [6]: X (X: no)

SMILES: CN[C@@H](CCC(=O)N[C@@H](CS)C(=O)NCC(=O)O)C(=O)O [Compound 1.71]
- activity/efficacy with GST enzyme (in words) [2]: loss of activity
- GST Activity > 50% [2]: X (X: no)
- % Degradation by GGT [3]: 11.7%
- cell viability versus untreated groups (in words) [4]: significantly higher cell viability than the untreated groups
- % Cell Viability (with UV) ([4]; mean ± SD, n = 6): 97.0 ± 5.5%
- viability at 24 h, 0.0325 mmolL^−1 [5]: 79.5 ± 10.2%
- activity with GPx and GR enzymes (in words) [6]: retention of activity
- GT/GPx Activity > 50% [6]: ✔ (✔: yes)
